Measurements from paper PMC6925601 (European journal of medicinal chemistry, 2019).
Values belong to the compound of their own block, whether it stands above or below them.

Experiments:
[1] = system: nine tumor cell lines and primary PBMCs; assay: Cytotoxicity across the panel of nine tumor cell lines and PBMCs; type: cell-based, human; conditions: 24 h; for IC50: Homo sapiens, PBMC, read-out: cytotoxic activity IC50 for most of the cell lines; for cytotoxicity toward tumor cell lines and PBMCs (in words): up to 50 μM
[2] = biological target: T1, human neutrophil elastase (HNE) (Homo sapiens, UniProt P08246); assay: HNE inhibitory assay; type: biochemical
T1 sequence (P08246 30-247 limits assumed): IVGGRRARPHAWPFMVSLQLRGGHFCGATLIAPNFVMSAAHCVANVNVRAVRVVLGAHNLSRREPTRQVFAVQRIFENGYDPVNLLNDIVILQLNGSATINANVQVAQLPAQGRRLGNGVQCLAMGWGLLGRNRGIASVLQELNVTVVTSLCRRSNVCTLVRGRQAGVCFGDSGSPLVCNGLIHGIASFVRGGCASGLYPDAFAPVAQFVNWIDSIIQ

[3] = biological target: T2, MKK7 (Homo sapiens, UniProt O14733); assay: KINOMEscan kinase binding assay; conditions: for Kd (μM) vs MKK7: KINOMEscan, duplicate, maximum concentration 30 μM
T2 sequence (O14733 1-419): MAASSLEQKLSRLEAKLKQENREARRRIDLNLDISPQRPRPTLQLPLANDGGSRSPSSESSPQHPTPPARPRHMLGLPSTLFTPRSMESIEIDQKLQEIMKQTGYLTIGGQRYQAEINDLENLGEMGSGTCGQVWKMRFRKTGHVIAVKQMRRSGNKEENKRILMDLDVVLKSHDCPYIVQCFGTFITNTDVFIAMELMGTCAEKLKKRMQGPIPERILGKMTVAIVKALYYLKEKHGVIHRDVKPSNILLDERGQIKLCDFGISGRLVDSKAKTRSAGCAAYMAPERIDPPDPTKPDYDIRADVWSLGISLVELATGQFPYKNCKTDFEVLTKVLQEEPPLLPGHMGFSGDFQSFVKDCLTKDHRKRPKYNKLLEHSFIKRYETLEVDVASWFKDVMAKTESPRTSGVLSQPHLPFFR

[4] = biological target: T3, Cdc25A (Homo sapiens, UniProt P30304); assay: CycLex Cdc25A fluorometric phosphatase inhibition assay; type: biochemical
T3 sequence (P30304 1-524): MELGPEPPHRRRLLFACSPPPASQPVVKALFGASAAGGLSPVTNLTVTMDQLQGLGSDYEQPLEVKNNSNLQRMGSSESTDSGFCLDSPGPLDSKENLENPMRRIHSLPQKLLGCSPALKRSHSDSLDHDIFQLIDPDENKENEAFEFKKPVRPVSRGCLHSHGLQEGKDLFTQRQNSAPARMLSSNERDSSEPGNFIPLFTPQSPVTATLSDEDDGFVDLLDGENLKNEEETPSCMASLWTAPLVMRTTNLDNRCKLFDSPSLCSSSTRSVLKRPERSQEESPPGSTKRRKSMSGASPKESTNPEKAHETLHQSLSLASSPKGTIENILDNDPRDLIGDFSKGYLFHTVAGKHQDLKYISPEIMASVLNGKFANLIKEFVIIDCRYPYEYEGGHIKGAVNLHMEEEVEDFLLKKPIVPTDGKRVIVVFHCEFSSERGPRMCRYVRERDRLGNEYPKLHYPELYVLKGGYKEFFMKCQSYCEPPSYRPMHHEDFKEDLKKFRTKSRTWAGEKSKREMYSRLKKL

[5] = biological target: T4, Cdc25B (Homo sapiens, UniProt P30305); assay: CycLex Cdc25B fluorometric phosphatase inhibition assay; type: biochemical
T4 sequence (P30305 1-580): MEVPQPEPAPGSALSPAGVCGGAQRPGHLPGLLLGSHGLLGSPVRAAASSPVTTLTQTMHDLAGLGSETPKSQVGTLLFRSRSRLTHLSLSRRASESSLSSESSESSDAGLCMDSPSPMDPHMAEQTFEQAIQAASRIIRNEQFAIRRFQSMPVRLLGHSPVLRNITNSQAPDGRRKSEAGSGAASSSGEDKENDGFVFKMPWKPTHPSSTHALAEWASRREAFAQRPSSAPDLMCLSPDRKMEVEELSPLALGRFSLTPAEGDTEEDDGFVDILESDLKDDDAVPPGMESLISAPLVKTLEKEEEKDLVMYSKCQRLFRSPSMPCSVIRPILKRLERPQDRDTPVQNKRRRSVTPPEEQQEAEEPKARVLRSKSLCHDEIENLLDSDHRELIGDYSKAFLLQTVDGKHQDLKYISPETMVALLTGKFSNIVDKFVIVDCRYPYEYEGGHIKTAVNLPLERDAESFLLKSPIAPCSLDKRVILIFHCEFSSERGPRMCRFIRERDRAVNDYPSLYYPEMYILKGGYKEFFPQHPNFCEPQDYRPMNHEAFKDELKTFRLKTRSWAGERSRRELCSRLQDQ

[6] = biological target: T5, MKK4 (Homo sapiens, UniProt P45985); assay: KINOMEscan kinase binding assay; conditions: for Kd for MKK4: KINOMEscan, data not shown
T5 sequence (P45985 1-399): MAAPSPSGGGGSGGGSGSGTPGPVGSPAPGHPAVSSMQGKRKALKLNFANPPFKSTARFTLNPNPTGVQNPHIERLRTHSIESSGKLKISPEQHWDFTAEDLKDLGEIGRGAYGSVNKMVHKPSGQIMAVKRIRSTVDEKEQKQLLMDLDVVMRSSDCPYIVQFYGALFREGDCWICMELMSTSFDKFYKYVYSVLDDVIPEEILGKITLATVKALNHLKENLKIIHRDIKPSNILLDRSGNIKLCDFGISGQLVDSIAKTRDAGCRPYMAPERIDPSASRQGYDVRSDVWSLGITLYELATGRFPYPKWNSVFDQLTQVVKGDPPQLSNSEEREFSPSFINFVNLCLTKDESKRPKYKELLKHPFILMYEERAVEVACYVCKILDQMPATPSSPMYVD

[7] = system: primary peripheral blood mononuclear cells (PBMCs); assay: Cytotoxicity assay; type: cell-based; conditions: Homo sapiens, PBMC, 24 h, read-out: PBMCs IC50 (μM)
[8] = system: MCF7 breast adenocarcinoma cells; assay: Anticancer cell cytotoxicity assay; type: cell-based; conditions: Homo sapiens, MCF7, 24 h, read-out: MCF7 IC50 (μM)
[9] = system: SW-982 synovial sarcoma cells; assay: Anticancer cell cytotoxicity assay; type: cell-based; conditions: Homo sapiens, SW982, 24 h, read-out: SW-982 IC50 (μM)
[10] = system: A549 lung carcinoma cells; assay: Anticancer cell cytotoxicity assay; type: cell-based; conditions: Homo sapiens, A549, 24 h, read-out: A549 IC50 (μM)
[11] = system: LS174T colorectal adenocarcinoma cells; assay: Anticancer cell cytotoxicity assay; type: cell-based; conditions: Homo sapiens, 24 h, read-out: LS174T IC50 (μM)

Structure (SMILES): CSC1=C(SC)C(=O)c2ccccc2C1=O [Compound 13]
IC50 [1]: < 10 µM
IC50 [2]: > 50 µM

Structure (SMILES): CCSC1=C(C)C(=O)c2ccccc2C1=O [Compound 10]
IC50 [1]: < 10 µM
IC50 [2]: > 50 µM

Kd [3]: > 30 µM
IC50 [2]: > 50 µM
Structure (SMILES): CC1=C(SCCO)C(=O)c2ccccc2C1=O [Compound 5, reference compound]

Kd [3]: > 30 µM
Kd (μM) vs MKK7 [3]: did not bind
IC50 [2]: > 50 µM
IC50 [4]: > 50 µM
Structure (SMILES): CC(C)(C)[C@H]1CC[C@H](CC2=C(O)C(=O)c3ccccc3C2=O)CC1 [Compound 21, buparvaquone, reference compound]

Kd (μM) vs MKK7 [3]: almost complete loss of binding affinity
IC50 [2]: > 50 µM
Structure (SMILES): COC1=C(OC)C(=O)c2ccccc2C1=O [Compound 15]

IC50 [5]: > 50 µM
IC50 [2]: > 50 µM
Structure (SMILES): O=C1C(Cl)=C(NCCO)C(=O)c2ccccc21 [Compound 23a, 2-Chloro-3-(2-hydroxy-ethylamino)-1,4-naphthoquinone]

Kd for MKK4 [6]: No MKK4 binding affinity
Structure (SMILES): CC(SC1=CC(=O)c2ccccc2C1=O)C(=O)O (stereo not shown) [Compound 8]

Structure (SMILES): CC(C)=CC[C@@H](O)C1=CC(=O)c2c(O)ccc(O)c2C1=O [Compound 1, Shikonin]
Kd [3]: > 30 µM
Kd (μM) vs MKK7 [3]: did not bind
IC50 [2]: > 50 µM

Kd for MKK4 [6]: No MKK4 binding affinity
IC50 [2]: > 50 µM
Structure (SMILES): O=C(O)c1cccc(NC2=C(Cl)C(=O)c3ccccc3C2=O)c1 [Compound 22e, 3-(3-Chloro-1,4-dioxo-1,4-dihydro-naphthalen-2-ylamino)-benzoic acid]
IC50 [1]: < 10 µM

Kd [3]: > 30 µM
Kd (μM) vs MKK7 [3]: did not bind
IC50 [2]: > 50 µM
Structure (SMILES): CC1=CC(=O)c2ccccc2C1=O [Compound 18, menadione, reference compound]
IC50 [1]: < 10 µM

Structure (SMILES): COCCSC1=C(C)C(=O)c2ccccc2C1=O [Compound 11]
IC50 [1]: < 10 µM
IC50 [2]: > 50 µM

Kd [3]: > 30 µM
Kd (μM) vs MKK7 [3]: inactive
IC50 [2]: > 50 µM
Structure (SMILES): COc1ccc(OC)c2c1C(=O)C=C(SCCC(=O)O)C2=O [Compound 14, GN25]
cytotoxicity toward tumor cell lines and PBMCs (in words) [1]: weakly toxic or nontoxic
IC50 [7]: > 50 µM
IC50 [8]: > 50 µM
IC50 [9]: > 50 µM
IC50 [10]: > 50 µM
IC50 [11]: > 50 µM

Structure (SMILES): CC1=CC(=O)c2c(O)cccc2C1=O [Compound 2, Plumbagin, reference compound]
IC50 [1]: < 10 µM
IC50 [2]: > 50 µM

IC50 [2]: > 50 µM
Structure (SMILES): COC1=C(C)C(=O)c2ccccc2C1=O [Compound 17]
IC50 [7]: > 50 µM
IC50 [9]: > 50 µM
IC50 [10]: > 50 µM
IC50 [11]: > 50 µM

IC50 [5]: > 50 µM
IC50 [2]: > 50 µM
Structure (SMILES): O=C1C(Cl)=C(NCCCO)C(=O)c2ccccc21 [Compound 23b, 2-Chloro-3-(3-hydroxy-propylamino)-1,4-naphthoquinone]

Kd [6]: 19.5 ± 0.7 µM
IC50 [2]: > 50 µM
Structure (SMILES): O=C(O)CSC1=CC(=O)c2ccccc2C1=O [Compound 6]
cytotoxicity toward tumor cell lines and PBMCs (in words) [1]: weakly active or inactive

IC50 [2]: > 50 µM
Structure (SMILES): CC1=C(SCCC(=O)O)C(=O)c2ccccc2C1=O [Compound 9, vitamin ks-II, reference compound]

IC50 [2]: > 50 µM
Structure (SMILES): COC1=CC(=O)c2ccccc2C1=O [Compound 16]

IC50 [2]: > 50 µM
Structure (SMILES): COC(=O)c1ccc(NC2=C(Cl)C(=O)c3ccccc3C2=O)cc1 [Compound 22g, 4-(3-Chloro-1,4-dioxo-1,4-dihydro-naphthalen-2-ylamino)-benzoic acid methyl ester]

IC50 [5]: > 50 µM
IC50 [2]: > 50 µM
Structure (SMILES): O=C(O)CNC1=C(Cl)C(=O)c2ccccc2C1=O [Compound 22a, (3-Chloro-1,4-dioxo-1,4-dihydro-naphthalen-2-ylamino)-acetic acid]

IC50 [2]: > 50 µM
Structure (SMILES): O=C(O)CCCNC1=C(Cl)C(=O)c2ccccc2C1=O [Compound 22c, 4-(3-Chloro-1,4-dioxo-1,4-dihydro-naphthalen-2-ylamino)-butyric acid]

Structure (SMILES): O=C1C(O)=C(CN(CCCl)CCCl)C(=O)c2ccccc21 [Compound 19]
IC50 [2]: > 50 µM

IC50 [5]: > 50 µM
IC50 [2]: > 50 µM
IC50 [4]: > 50 µM
Structure (SMILES): COC(=O)c1ccc(NC2=C(OC)C(=O)c3ccccc3C2=O)cc1 [Compound 25b, 4-(3-Methoxy-1,4-dioxo-1,4-dihydro-naphthalen-2-ylamino)-benzoic acid methyl ester]

Structure (SMILES): CC1=C(SC(C)C)C(=O)c2ccccc2C1=O [Compound 12]
IC50 [1]: < 10 µM
IC50 [2]: > 50 µM

Structure (SMILES): O=C(O)c1ccc(NC2=C(Cl)C(=O)c3ccccc3C2=O)cc1 [Compound 22f, 4-(3-Chloro-1,4-dioxo-1,4-dihydro-naphthalen-2-ylamino)-benzoic acid]
IC50 [1]: < 10 µM
IC50 [2]: > 50 µM

Structure (SMILES): COC(=O)c1ccc(NC2=C(N3CCCCC3)C(=O)c3ccccc3C2=O)cc1 [Compound 25a, 4-(1,4-Dioxo-3-piperidin-1-yl-1,4-dihydro-naphthalen-2-ylamino)-benzoic acid methyl ester]
Kd [3]: > 30 µM
IC50 [2]: > 50 µM

Kd for MKK4 [6]: No MKK4 binding affinity
fold more active than 6 (MKK7) ([3]; compared with compound 6): 6 fold
IC50 [2]: > 50 µM
Structure (SMILES): O=C(O)CCSC1=CC(=O)c2ccccc2C1=O [Compound 7, 3-[(1,4-dioxonaphthalen-2-yl)sulfanyl]propanoic acid]

IC50 [5]: > 50 µM
Cdc25B IC50 (μM) ([5]; recombinant Cdc25B, OMFP substrate, 25 °C): inactive
IC50 [2]: > 50 µM
IC50 [4]: > 50 µM
Cdc25A IC50 (μM) ([4]; recombinant Cdc25A, OMFP substrate, 25 °C): inactive
Structure (SMILES): O=C1C(Cl)=C(NCCCN2CCOCC2)C(=O)c2ccccc21 [Compound 24, 2-Chloro-3-(3-morpholin-4-yl-propylamino)-1,4-naphthoquinone]

Structure (SMILES): O=C1C(SCCO)=C(SCCO)C(=O)c2ccccc21 [Compound 4, 2,3-bis-[(2-hydroxyethyl)thio]-1,4-naphthoquinone, reference compound]
Kd for MKK4 [6]: No MKK4 binding affinity
Kd (μM) vs MKK7 [3]: in the micromolar range
IC50 [1]: < 10 µM
IC50 [2]: > 50 µM
